Results from patent US7022716B2, “Cyclic amine phenyl beta-3 adrenergic receptor agonists” (Wyeth, priority 2000, dated 2006).

What was measured:
[1] = target: T1, human β3 adrenergic receptor (Homo sapiens, UniProt P13945); assay: cAMP (SPA) response in CHO cells transfected with human β3 adrenergic receptor; assay type: cell-based; design: key: fraction of maximal isoproterenol (10^-5 M) response; settings: maximal response relative to maximal response of isoproterenol at 10^-5 M
T1 construct: Full length β3 AR clones (402 amino acids) containing the last 6 amino acids of hβ3-AR are prepared; expressed in transfected cells; host or cells: CHO (Chinese hamster ovary) cells
T1 sequence (P13945 whole entry): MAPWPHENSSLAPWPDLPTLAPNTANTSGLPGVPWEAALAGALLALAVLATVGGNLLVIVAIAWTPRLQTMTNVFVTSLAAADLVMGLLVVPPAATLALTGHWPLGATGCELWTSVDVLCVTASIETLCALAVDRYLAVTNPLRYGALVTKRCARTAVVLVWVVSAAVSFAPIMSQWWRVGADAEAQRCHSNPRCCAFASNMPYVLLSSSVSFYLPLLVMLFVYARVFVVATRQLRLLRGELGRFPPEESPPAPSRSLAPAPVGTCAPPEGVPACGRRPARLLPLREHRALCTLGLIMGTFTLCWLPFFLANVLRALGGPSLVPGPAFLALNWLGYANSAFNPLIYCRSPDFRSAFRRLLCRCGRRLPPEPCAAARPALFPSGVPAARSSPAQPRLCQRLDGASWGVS
Method in brief: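 Reactions were stopped with 0.2N HCl and neutralised, and cAMP was measured by SPA. Activity is expressed as percent of the maximal 10^−5 M isoproterenol response.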

SMILES | melting point | IA(β3) [1]
CCOC(=O)CCNC(=O)c1ccc(N2CCC(NC[C@H](O)c3ccc(O)c(NS(C)(=O)=O)c3)CC2)cc1 [Example 193, Ethyl3-[(4-{4-[((2R)-2-hydroxy-2-{4-hydroxy-3-[(methylsulfonyl)amino]phenyl}-ethyl)amino]-1-piperidinyl}benzoyl)amino]propanoate.] | > 95 °C (dec.) | 0.9
CS(=O)(=O)Nc1cc([C@@H](O)CNC2CCN(c3ccc(C(=O)NCCC(=O)O)cc3)CC2)ccc1O [Example 195, N-(4-{4-[((2R)-2-Hydroxy-2-{4-hydroxy-3-[(methylsulfonyl)amino]phenyl}ethyl)amino]-1-piperidinyl}benzoyl)-bete-alanine] | > 170 °C (dec.) | 0.98
O=C1NC(=O)C(Cc2ccc(N3CCC(NC[C@H](O)COc4cccnc4)CC3)cc2)S1 (stereo partly drawn) [Example 125, 5-(4-{4-[(2S)-2-Hydroxy-3-(pyridin-3-yloxy)-propylamino]-piperidin-1-yl}-benzyl)-thiazolidine-2,4-dione] | 130 to 132 °C | 0.36
O=C1NC(=O)C(=Cc2ccc(N3CCC(NC[C@H](O)COc4ccc(O)cc4)CC3)cc2)S1 [Example 76, 5-(4-{4-[(2S)-2-Hydroxy-3-(4-hydroxy-phenoxy)-propylamino]-piperidin-1-yl}-benzylidene)-thiazolidine-2,4-dione] | > 208 °C (dec.) | 0.94
O=C1NC(=O)C(Cc2ccc(N3CCC(NC[C@H](O)COc4ccc(O)c(NS(=O)(=O)c5ccccc5)c4)CC3)cc2)S1 (stereo partly drawn) [Example 93, N-[5-((2S)-3-{1-[4-(2,4-Dioxo-thiazolidin-5-ylmethyl)-phenyl]-piperidin-4-ylamino}-2-hydroxy-propoxy)-2-hydroxy-phenyl]-benzenesulfonamide] | > 120 °C (dec.) | 1
CC(C)(C)OC(=O)CN1C(=O)SC(Cc2ccc(N3CCC(NC[C@H](O)c4ccc(O)c(NS(C)(=O)=O)c4)CC3)cc2)C1=O (stereo partly drawn) [Example 64, 5-[[4-[4-[[(R)-2-Hydroxy-2-[4-hydroxy-3-[(methylsulfonyl)amino]phenyl]ethyl]amino]-1-piperidinyl]phenyl]methyl]-2,4-dioxo-3-thiazolidineacetic acid tert-butyl-ester] | 130 to 132 °C | 1
O=C1NC(=O)C(Cc2ccc(N3CCC(NC[C@H](O)COc4ccc(O)cc4)CC3)cc2)S1 (stereo partly drawn) [Example 81, 5-(4-{4-[(2S)-2-Hydroxy-3-(4-hydroxy-phenoxy)-propylamino]-piperidin-1-yl}-benzyl)-thiazolidine-2,4-dione] | > 160 °C (dec.) | 0.89
CS(=O)(=O)Nc1cc(C(O)CNC2CCN(c3ccc(-c4nnn[nH]4)cc3)CC2)ccc1O (stereo not drawn) [Example 97, N-[2-Hydroxy-5-(1-hydroxy-2-{1-[4-(1H-tetrazol-5-yl)-phenyl]-piperidin-4-ylamino}-ethyl)-phenyl]-methanesulfonamide] | > 175 °C (dec.) | 0.9
O=C1NC(=O)C(Cc2ccc(N3CCC(NC[C@@H](O)c4cccnc4)CC3)cc2)S1 (stereo partly drawn) [Example 131, 5-{4-[4-((2S)-2-Hydroxy-2-pyridin-3-yl-ethylamino)-piperidin-1-yl]-benzyl}-thiazolidine-2,4-dione] | > 88 °C (dec.) | 0.52
O=C1NC(=O)C(Cc2ccc(N3CCC(NC[C@H](O)COc4ccccc4)CC3)cc2)S1 (stereo partly drawn) [Example 73, 5-[4-[4-((2S)-2-Hydroxy-3-phenoxy-propylamino)-piperidin-1-yl]-benzyl}-thiazolidin-2,4-dione] | 218 to 220 °C | 0.71
O=C1NC(=O)C(=Cc2ccc(N3CCC(NC[C@H](O)COc4cccc5[nH]c(=O)[nH]c45)CC3)c(F)c2)S1 [Example 69, 5-(3-Fluoro-4-{4-[(2S)-2-hydroxy-3-(2-oxo-2,3-dihydro-1H-benzoimidazol-4-yloxy)-propylamino]-piperidin-1-yl}-benzylidene)-thiazolidine-2,4-dione] | 162 to 164 °C | 1
O=C1NC(=O)C(Cc2ccc(N3CCC(NC[C@H](O)c4ccc(O)c(NS(=O)(=O)c5ccccc5)c4)CC3)cc2)S1 (stereo partly drawn) [Example 96, N-(5-{(1R)-2-[(1-{4-[(2,4-Dioxo-1,3-thiazolidin-5-yl)methyl]phenyl}piperidin-4-yl)amino]-1-hydroxyethyl}-2-hydroxyphenyl)benzenesulfonamide] | > 150 °C (dec.) | 0.93
CS(=O)(=O)Nc1cc([C@@H](O)CNC2CCN(c3ccc(C(=O)N[C@@H](CCC(=O)O)C(=O)O)cc3)CC2)ccc1O [Example 194, (2S)-2-[(4-{4-[((2R)-2-Hydroxy-2-{4-hydroxy-3-[(methylsulfonyl)amino]phenyl}-ethyl)amino]-1-piperidinyl}benzoyl)amino]pentanedioic acid] | > 230 °C (dec.) | 0.88
COC(=O)C1(NC(=O)c2ccc(N3CCC(NC[C@H](O)c4ccc(O)c(NS(C)(=O)=O)c4)CC3)cc2)CC1 [Example 206] | > 110 °C (dec.) | 0.94
CS(=O)(=O)Nc1cc(C(O)CNC2CCN(c3ccc(C=C4NC(=O)NC4=O)cc3)CC2)ccc1O (stereo not drawn) [Example 85, N-[5-(2-{1-[4-(2,5-Dioxo-imidazolidin-4-ylidenemethyl)-phenyl]-piperidin-4-ylamino}-1-hydroxy-ethyl)-2-hydroxy-phenyl]-methanesulfonamide] | > 201 °C (dec.) | 0.94
CS(=O)(=O)Nc1cc([C@@H](O)CNC2CCN(c3ccc(CC4SC(=O)NC4=O)cc3)CC2)ccc1Cl (stereo partly drawn) [Example 95, N-[2-Chloro-5-((1R)-2-{1-[4-(2,4-dioxo-thiazolidin-5-ylmethyl)-phenyl]-piperidin-4-ylamino}-1-hydroxy-ethyl)-phenyl]-methanesulfonamide] | > 105 °C (dec.) | 0.59
CCCC(=O)Nc1ccc(N2CCC(NC[C@H](O)COc3cccc4[nH]c5ccccc5c34)CC2)cc1 [Example 387, N-[4-(4-{[(2S)-3-(9H-Carbazol-4-yloxy)-2-hydroxypropyl]amino}-1-piperidinyl)phenyl]butanamide] | 194 to 199 °C | 0.56
O=C(CCC1CCCC1)Nc1ccc(N2CCC(NC[C@H](O)COc3cccc4[nH]c(=O)[nH]c34)CC2)cc1 [Example 392, 3-Cyclopentyl-N-{4-[4-({(2S)-2-hydroxy-3-[(2-oxo-2,3-dihydro-1H-benzimidazol-4-yl)oxy]propyl}amino)-1-piperidinyl]phenyl}propanamide] | 140 to 144 °C | 0.9
CS(=O)(=O)Nc1cc([C@@H](O)CNC2CCN(c3ccc(NC(=O)c4ccc5c(c4)OCO5)cc3)CC2)ccc1O [Example 394, N-(4-{4-[((2R)-2-Hydroxy-2-{4-hydroxy-3-[(methylsulfonyl)amino]phenyl}ethyl)amino]-1-piperidinyl}phenyl)-1,3-benzodioxole-5-carboxamide] | 104 to 113 °C | 1.3
O=C1NC(=O)C(=Cc2ccc(N3CCC(NC[C@H](O)COc4cccc5[nH]c(=O)[nH]c45)CC3)cc2)S1 [Example 75, 5-(4-{4-[(2S)-2-Hydroxy-3-(2-oxo-2,3-dihydro-1H-benzoimidazol-4-yloxy)-propylamino]-piperidin-1-yl}-benzylidene)-thiazolidine-2,4-dione] | > 240 °C (dec.) | 1.08
O=C1NC(=O)C(=Cc2ccc(N3CCC(NC[C@H](O)COc4ccccc4)CC3)cc2)S1 [Example 83, 5-{4-[4-((2S)-2-Hydroxy-3-phenoxy-propylamino)-piperidin-1-yl]-benzylidene}-thiazolidine-2,4-dione] | 208 to 210 °C | 0.68
CS(=O)(=O)Nc1cc([C@@H](O)CNC2CCN(c3ccc(-c4cc(=O)[nH][nH]4)cc3)CC2)ccc1O [Example 146, N-[(2R)-2-Hydroxy-5-(1-hydroxy-2-{1-[4-(5-oxo-2,5-dihydro-1H-pyrazol-3-yl)-phenyl]-piperidin-4-ylamino}-ethyl)-phenyl]-methanesulfonamide] | 225 to 227 °C | 0.91
CCOC(=O)[C@H](CC(C)C)NC(=O)c1ccc(N2CCC(NC[C@H](O)c3ccc(O)c(NS(C)(=O)=O)c3)CC2)cc1 [Example 198, (2S)-2-(4-{4-[(2R)-2-Hydroxy-2-(4-hydroxy-3-methanesulfonylamino-phenyl)-ethylamino]-piperidin-1-yl}-benzoylamino)-4-methyl-pentanoic acid ethyl ester:] | > 85 °C (dec.) | 0.97
O=C1NC(=O)C(Cc2ccc(N3CCC(NCC(O)COc4ccc(OCc5ccccc5)cc4)CC3)cc2)S1 [Example 74, 5-(4-{4-[(2S)-3-(4-Benzyloxy-phenoxy)-2-hydroxy-propylamino]-piperidin-1-}-benzyl)-thiazolidine-2,4-dione] | > 70 °C (dec.) | 0.23
COC(=O)CNC(=O)c1ccc(N2CCC(NC[C@H](O)c3ccc(O)c(NS(C)(=O)=O)c3)CC2)cc1 [Example 208, Methyl[(4-{4-[((2R)-2-hydroxy-2-{4-hydroxy-3-[(methylsulfonyl)amino]phenyl}ethyl)amino]-1-piperidinyl}benzoyl)amino]acetate] | > 75 °C (dec.) | 0.97
CCOC(=O)Cn1nnnc1-c1ccc(N2CCC(NC[C@H](O)c3ccc(O)c(NS(C)(=O)=O)c3)CC2)cc1 [Example 98] | > 140 °C (dec.) | 1
O=C1NC(=O)C(Cc2ccc(N3CCC(NC[C@H](O)c4cccc(Cl)c4)CC3)cc2)S1 (stereo partly drawn) [Example 79, 5-(4-{4-[2-(3-Chloro-phenyl)-(2R)-2-hydroxyethylamino}-piperidin-1-yl}-benzyl)-thiazolidine-2,4-dione] | > 195 °C | 0.56
